{"source": "patent US8637323B2", "about": "“Fluorescent nitric oxide probes and associated methods” (Board of Regents, The University of Texas System, priority 2010, dated 2014)", "origin": "cited, not measured here", "key": {"[1]": {"details": "calculated with published photophysical parameters"}}, "data": [{"smiles": "CC(=O)Oc1ccc2c(c1)Oc1cc(OC(C)=O)ccc1C21OC(=O)c2cc(N)c(N)cc21", "note": "[DAF-2 DA]", "values": [{"measurement": "fluorescence enhancement", "setting": "[1]", "result": "ca. 200 fold"}, {"measurement": "NO concentration giving a fluorescence signal comparable to 1 mM DHA", "result": "~300", "unit": "nM"}]}]}
